US10870646B2, “Oxazolidinones and pharmaceutical compositions thereof for treating bacterial infections, including infection of Mycobacterium tuberculosis” (University of St. Thomas, priority 2017, dated 2020)
≈ marks a conversion by molar mass, not a printed value. Like-named read-outs stand apart in the source and are kept apart here.

Columns and labels:
[1] = tested on: Mycobacterium tuberculosis 115R; assay: MIC90 broth macrodilution; assay type: cell-based
Mtb = assay type: cell-based, Mycobacterium tuberculosis
[2] = tested on: Mycobacterium tuberculosis H37Rv; assay: MIC90 broth macrodilution; assay type: cell-based
[3] = tested on: Mycobacterium tuberculosis 124R; assay: MIC90 broth macrodilution; assay type: cell-based

SMILES | MIC90 [1] [µg/mL] | frequency of spontaneous mutations that confer resistance (Mtb) | activity against growth (in words) [2] | MIC90 [3] [µg/mL] | MIC90 ([1]; read-out: MIC90) [µg/mL] | MIC90 ([3]; read-out: MIC90) [µg/mL]
CC(=O)NC[C@H]1CN(c2ccc3c(c2)Oc2ccccc2O3)C(=O)O1 [Compound T145] | 0.5 to 1 (≈ 1.47 to 2.94 µM) | 4.0×10^−8 | potent activity | 0.5 to 1 (≈ 1.47 to 2.94 µM) |  | 
COc1cccc2c1Oc1ccc(N3C[C@H](CNC(C)=O)OC3=O)cc1O2 [Compound T197, (S)—N-((3-(6-methoxydibenzo[b,e][1,4]dioxin-2-yl)-2-oxooxazolidin-5-yl)methyl)acetamide] |  |  |  |  | 8 to 16 (≈ 21.6 to 43.2 µM) | 4 to 8 (≈ 10.8 to 21.6 µM)
CC(=O)NC[C@H]1CN(c2ccc(N3CCOCC3)c(F)c2)C(=O)O1 [Linezolid, reference compound] |  |  |  |  | 0.25 to 0.5 (≈ 0.741 to 1.48 µM) | 0.25 to 0.5 (≈ 0.741 to 1.48 µM)
C[C@@H](O)[C@H]1C(=O)N2C(C(=O)O)=C(S[C@@H]3CN[C@H](C(=O)N(C)C)C3)[C@H](C)[C@H]12 [Meropenem, reference compound] |  |  |  |  | 8 to 16 (≈ 20.9 to 41.7 µM) | 8 to 16 (≈ 20.9 to 41.7 µM)
